Source: ChEMBL document CHEMBL1201862, “PubChem BioAssay data set” (2004)
Activity calls are given as the source filed them. Rule as the data show it: actives have a measured IC50 and inactives only a lower limit.

Molecular target: Envelope glycoprotein gp160 (Human immunodeficiency virus 1, UniProt Q6QLK5)
Experiment: inhibitors of HIV fusion peptide binding, primary screen, biochemical, uHTS, fluorescence dequenching (AID 1986)

Envelope glycoprotein gp160, sequence (Q6QLK5 whole entry, the tested form may be a part): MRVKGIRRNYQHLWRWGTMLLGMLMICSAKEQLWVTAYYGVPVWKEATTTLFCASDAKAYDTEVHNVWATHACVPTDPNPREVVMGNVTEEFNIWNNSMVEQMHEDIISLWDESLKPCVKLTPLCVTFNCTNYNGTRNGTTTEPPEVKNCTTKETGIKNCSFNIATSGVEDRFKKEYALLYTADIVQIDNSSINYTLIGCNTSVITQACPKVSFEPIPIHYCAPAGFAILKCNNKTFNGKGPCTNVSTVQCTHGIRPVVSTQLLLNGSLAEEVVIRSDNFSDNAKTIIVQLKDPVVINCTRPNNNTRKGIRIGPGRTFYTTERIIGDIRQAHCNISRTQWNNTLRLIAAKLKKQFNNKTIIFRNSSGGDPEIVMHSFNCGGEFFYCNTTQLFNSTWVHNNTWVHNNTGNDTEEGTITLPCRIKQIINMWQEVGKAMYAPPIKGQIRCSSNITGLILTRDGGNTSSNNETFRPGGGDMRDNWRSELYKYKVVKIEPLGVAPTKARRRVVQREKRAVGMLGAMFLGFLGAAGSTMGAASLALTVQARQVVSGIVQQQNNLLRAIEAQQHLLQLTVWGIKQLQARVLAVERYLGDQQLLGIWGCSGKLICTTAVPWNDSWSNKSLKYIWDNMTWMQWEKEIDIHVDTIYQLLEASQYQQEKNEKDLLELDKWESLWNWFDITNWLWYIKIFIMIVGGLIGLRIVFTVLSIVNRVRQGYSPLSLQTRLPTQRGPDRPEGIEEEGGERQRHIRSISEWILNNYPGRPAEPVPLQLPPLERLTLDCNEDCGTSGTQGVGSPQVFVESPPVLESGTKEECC

Row | Structure (SMILES) | IC50
1 | COc1ccc(NS(=O)(=O)c2ccc3c(c2)[C@H]2C=CC[C@H]2[C@@H](c2ccc(C(=O)O)cc2)N3)cc1 | 8.25 µM (active)
2 | O=C1/C(=C\c2ccc(O)c(O)c2)C(c2ccccc2)=NN1c1ccccc1 | 17.6 µM (active)
3 | CC(C)S(=O)(=O)C1=NSC2=NC(=O)/C(=C\c3ccc(-c4ccccc4)o3)C(=N)N21 | 8.73 µM (active)
